This is an account of results in ChEMBL document CHEMBL1137931, “Anti-AIDS agents. Part 58: synthesis and anti-HIV activity of 1-thia-di-O-(-)-camphanoyl-(+)-cis-khellactone (1-thia-DCK) analogues” (Bioorg Med Chem Lett, 2004).

For orientation: EC50 means the concentration giving half of the maximal effect. A high value points to a less potent agent. For orientation: IC50 means the concentration that gives 50% inhibition. Low values mean greater potency in that assay, high ones weaker potency in that assay.

For series [1], the system named is H9. Kind of series: Concentration required to inhibit HIV-1 replication by 50% in acutely infected H9 lymphocytes; NA means not active. It is filed as functional, cell-based, Homo sapiens.
Series [2] deals with H9. Kind of series: Concentration required to inhibit uninfected H9 cell growth by 50%. It is filed as functional, cell-based. As to conditions: Homo sapiens; call rule not given here.
The test system of series [3] is H9. The series is described as follows: Concentration required to inhibit HIV-1 replication by 50% in acutely infected H9 lymphocytes. It is filed as functional, cell-based. As to conditions: Homo sapiens.
Series [4] can be described thus: Therapeutic index expressed as IC50/EC50. Conditions: read-out: TI.

With `Cc1cc(=O)sc2c3c(ccc12)OC(C)(C)C=C3`, the EC50 result in the series with H9 [1] was “Not Active”. Besides, the 50% inhibitory concentration (IC50) in the series on H9 [2] is 339 µM.

For the compound `Cc1cc(=O)sc2c3c(ccc12)OC(C)(C)[C@H](O)[C@@H]3O`, the EC50 result in the series with H9 [1] is “Not Active”. Besides, in the series with H9 [2], inhibition was half-maximal at 302 µM (IC50).

`Cc1cn([C@H]2C[C@H](N=[N+]=[N-])[C@@H](CO)O2)c(=O)[nH]c1=O` [ZIDOVUDINE] showed an EC50 in the series with H9 [3] of 0.045 µM.

In the case of `Cc1cc(=O)sc2c3c(ccc12)OCC=C3`, half-maximal inhibition in the series on H9 [2] (IC50) was put at 478 µM. Further, the selectivity ratio in series [4] worked out at 62.3.

The compound `Cc1cc(=O)sc2c3c(ccc12)OC[C@H](O)[C@@H]3O` registered an IC50 in the series with H9 [2] of 340 µM. Further, in series [4], the selectivity ratio was 11.1.

`Cc1cc(=O)sc2c3c(ccc12)OC(C)(C)[C@H](OC(=O)C12CCC(C)(C(=O)O1)C2(C)C)[C@@H]3OC(=O)C12CCC(C)(C(=O)O1)C2(C)C` (stereo not given in full): in the series with H9 [3], the EC50 worked out at 120 µM. For the same compound, in the series with H9 [2], 169 µM corresponded to half-maximal inhibition (IC50).

In the series with H9 [2], `Cc1cc(=O)sc2c3c(ccc12)OC[C@H](OC(=O)C12CCC(C)(C(=O)O1)C2(C)C)[C@@H]3OC(=O)C12CCC(C)(C(=O)O1)C2(C)C` (stereo not given in full) gave an IC50 of 194 µM. In series [4], the selectivity ratio amounted to 62.3.

Turning to `CC1(C)Oc2ccc3ccc(=O)oc3c2[C@@H](OC(=O)C23CCC(C)(C(=O)O2)C3(C)C)[C@H]1OC(=O)C12CCC(C)(C(=O)O1)C2(C)C` (stereo not given in full), the EC50 in the series with H9 [3] was found to be 0.000256 µM. Moreover, in series [4], the selectivity ratio amounted to 137000.
